# Measured values reported in PubChem BioAssay (NCI).
#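 48-hour exposure; five concentrations; linearly interpolated endpoints. The concentration for 50% growth inhibition is given as GI50. The concentration for full growth arrest is given as TGI.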
# Tests used:
# Assay in all cases: inhibition of tumour cell growth, NCI panel, 48 h
# [1] = test system: HCT-116 colon
# [2] = test system: U251 CNS
# [3] = test system: KM12 colon
# [4] = test system: HCT-15 colon
# [5] = test system: BT-549 breast
# [6] = test system: SF-268 CNS
# [7] = test system: IGROV1 ovarian
# [8] = test system: 786-0 renal
# [9] = test system: SR leukemia
# [10] = test system: HT29 colon
# [11] = test system: MDA-MB-231 breast
# [12] = test system: MCF7 breast
# [13] = test system: TK-10 renal
# [14] = test system: UO-31 renal
# [15] = test system: SK-MEL-28 melanoma
# [16] = test system: COLO 205 colon
# [17] = test system: MOLT-4 leukemia
# [18] = test system: SK-MEL-2 melanoma
# [19] = test system: NCI/ADR-RES ovarian
# [20] = test system: HOP-62 NSCLC
# [21] = test system: M14 melanoma
# [22] = test system: NCI-H522 lung
# [23] = test system: NCI-H226 lung
# [24] = test system: LOX IMVI melanoma
# [25] = test system: HL-60(TB) leukemia
# [26] = test system: A549 NSCLC
# [27] = test system: RPMI-8226 leukemia
# [28] = test system: K-562 leukemia
# [29] = test system: MDA-MB-435
# [30] = test system: PC-3 prostate
# [31] = test system: EKVX NSCLC
# [32] = test system: ACHN renal
# [33] = test system: SK-OV-3 ovarian
# [34] = test system: CAKI-1 renal
# [35] = test system: HS 578T breast
# [36] = test system: SN12C renal
# [37] = test system: SW-620 colon
# [38] = test system: HOP-92 NSCLC
# [39] = test system: SK-MEL-5 melanoma
# [40] = test system: OVCAR-8 ovarian
# [41] = test system: SF-295 CNS
# [42] = test system: OVCAR-4 ovarian
# [43] = test system: DU-145 prostate
# [44] = test system: CCRF-CEM leukemia
# [45] = test system: SNB-19 CNS
# [46] = test system: OVCAR-5 ovarian
# [47] = test system: T-47D breast
# [48] = test system: OVCAR-3 ovarian
# [49] = test system: HCC-2998 colon
# [50] = test system: NCI-H460 lung
# [51] = test system: UACC-257 melanoma
# [52] = test system: A498 renal
# [53] = test system: SF-539 CNS
# [54] = test system: UACC-62 melanoma
# [55] = test system: SNB-75 CNS
# [56] = test system: NCI-H23 lung
smiles,measurement,setting,value
CCN1C(=O)N(CC)C2SC(N/N=C/c3ccccc3F)=NC21 (stereo not given),GI50,[1],0.369 µM
same,TGI,[1],> 100 µM
same,GI50,[2],0.342 µM
same,TGI,[2],> 39.2 µM
same,GI50,[3],0.383 µM
same,TGI,[3],> 54.8 µM
same,GI50,[4],0.344 µM
same,TGI,[4],> 100 µM
same,GI50,[5],0.298 µM
same,TGI,[5],1.59 µM
same,GI50,[6],4.17 µM
same,TGI,[6],> 100 µM
same,GI50,[7],0.599 µM
same,TGI,[7],> 100 µM
same,GI50,[8],0.657 µM
same,TGI,[8],> 86.1 µM
same,GI50,[9],0.165 µM
same,TGI,[9],> 100 µM
same,GI50,[10],0.323 µM
same,TGI,[10],> 100 µM
same,GI50,[11],0.635 µM
same,TGI,[11],> 100 µM
same,GI50,[12],0.267 µM
same,TGI,[12],> 100 µM
same,TGI,[13],> 100 µM
same,GI50,[14],0.643 µM
same,TGI,[14],> 100 µM
same,GI50,[15],5.62 µM
same,TGI,[15],> 100 µM
same,GI50,[16],0.298 µM
same,TGI,[16],1.48 µM
same,GI50,[17],0.507 µM
same,TGI,[17],> 100 µM
same,GI50,[18],0.326 µM
same,TGI,[18],> 100 µM
same,GI50,[19],0.312 µM
same,TGI,[19],> 65.9 µM
same,GI50,[20],0.474 µM
same,TGI,[20],> 100 µM
same,GI50,[21],0.206 µM
same,TGI,[21],0.61 µM
same,GI50,[22],0.172 µM
same,TGI,[22],0.527 µM
same,GI50,[23],1.96 µM
same,TGI,[23],> 100 µM
same,GI50,[24],0.556 µM
same,TGI,[24],> 100 µM
same,GI50,[25],0.199 µM
same,TGI,[25],0.633 µM
same,GI50,[26],0.526 µM
same,TGI,[26],> 100 µM
same,GI50,[27],0.355 µM
same,TGI,[27],> 100 µM
same,GI50,[28],0.194 µM
same,TGI,[28],> 100 µM
same,GI50,[29],0.0751 µM
same,TGI,[29],0.274 µM
same,GI50,[30],0.347 µM
same,TGI,[30],> 100 µM
same,GI50,[31],0.57 µM
same,TGI,[31],> 100 µM
same,GI50,[32],0.864 µM
same,TGI,[32],> 100 µM
same,GI50,[33],0.569 µM
same,TGI,[33],> 100 µM
same,GI50,[34],0.353 µM
same,TGI,[34],> 100 µM
same,GI50,[35],0.299 µM
same,TGI,[35],> 100 µM
same,GI50,[36],0.567 µM
same,TGI,[36],> 100 µM
same,GI50,[37],0.372 µM
same,TGI,[37],> 100 µM
same,GI50,[38],1.28 µM
same,TGI,[38],> 25.8 µM
same,GI50,[39],0.603 µM
same,TGI,[39],20.7 µM
same,GI50,[40],0.425 µM
same,GI50,[41],0.293 µM
same,TGI,[41],> 100 µM
same,GI50,[42],> 58.3 µM
same,TGI,[42],> 100 µM
same,GI50,[43],0.462 µM
same,TGI,[43],> 100 µM
same,GI50,[44],0.364 µM
same,TGI,[44],> 100 µM
same,GI50,[45],0.43 µM
same,TGI,[45],> 100 µM
same,GI50,[46],0.517 µM
same,TGI,[46],> 100 µM
same,GI50,[47],0.557 µM
same,TGI,[47],> 100 µM
same,GI50,[48],0.33 µM
same,TGI,[48],> 100 µM
same,GI50,[49],0.414 µM
same,TGI,[49],27 µM
same,GI50,[50],0.353 µM
same,TGI,[50],> 100 µM
same,GI50,[51],2.17 µM
same,TGI,[51],> 64.4 µM
same,GI50,[52],0.204 µM
same,TGI,[52],0.836 µM
same,GI50,[53],0.238 µM
same,TGI,[53],0.772 µM
same,GI50,[54],0.295 µM
same,TGI,[54],> 100 µM
same,GI50,[55],0.207 µM
same,TGI,[55],> 73 µM
same,GI50,[56],0.467 µM
same,TGI,[56],> 100 µM
